Test results: USRE31731E, “Herbicidal 4-trifluoromethyl-4-nitrodiphenyl ethers” (priority 1978, dated 1984)

Assays:
Format in all cases: in vivo
[1] = system: Monocots; assay: Herbicidal activity, postemergence, monocot weeds (Table II); settings: post-emergence, 336 h, about 2 weeks, read-out: % control (percent of plants killed); for pest or weed control at 2241.7 g/ha: 2 lb./A.; for pest or weed control at 4483.4 g/ha: 4 lb./A.
Protocol: (§1) Using the procedure described below, diphenyl ethers were evaluated for control of the following weeds: […]
(§2) barnyardgrass (Echinochloa crusgalli) crabgrass (Digitaria spp.) nutsedge (Cyperus esculentus)
(§3) At 2 and 4 pounds per acre:
(§4) **Bermudagrass (Cynodon dactylon)
(§5) *downy brome (Bromus tectorum) foxtail (Setaria faberii)
(§6) Johnsongrass (Sorghum halepense) […]
(§7) quackgrass (Agropyron repens)
(§8) *ryegrass (Lolium perenne)
(§9) *yellow millet (Panicum miliaceum)
(§10) The following test procedure is employed. Seeds of selected crops and weeds are planted in soil in flats. For preemergence tests, the flats are treated with the test compound immediately after the planting. For postemergence tests, the seeds are allowed to germinate, and after 2 weeks the flats are treated with the test compound. The compound to be evaluated is dissolved in acetone, diluted with water, and sprayed over the flats using a carrier volume equivalent to 50 gallons per acre at the rate of application (pounds per acre, lb/A.) specified in the tables. About 2 weeks after the application of the test compound, the state of growth of the plants is observed and the phytotoxic effect of the compound is evaluated. Table II gives the average percent control achieved by the test compounds in terms of the percent of the plants which are killed by the compounds.

[2] = system: peanuts; assay: Crop tolerance, peanuts; settings: 50% or less kill of crop at rates giving more than 50% kill of weeds
Protocol: as §10
(§11) Following the general test procedure of Example 73, diphenyl ethers are evaluated for significant tolerance (as shown by 50% or less kill of the test crop at levels of application which give more than 50% kill of many or all of the weeds of Example 73) towards some or all of the following common agronomic crops (not all compounds tested against all crops): alfalfa, snapbeans, corn, cotton, cucumbers, peanuts, rape, rice, safflower, soybeans, tomatoes, and wheat.

[3] = system: wheat; assay: Crop tolerance, wheat; settings: 50% or less kill of crop at rates giving more than 50% kill of weeds
Protocol: as §10, §11

[4] = system: rice; assay: Crop tolerance, rice; settings: 50% or less kill of crop at rates giving more than 50% kill of weeds
Protocol: as §10, §11

[5] = system: Monocots; assay: Herbicidal activity, preemergence, monocot weeds (Table II); settings: pre-emergence, 336 h, about 2 weeks, read-out: % control (percent of plants killed); for pest or weed control at 2241.7 g/ha: 2 lb./A.; for pest or weed control at 4483.4 g/ha: 4 lb./A.
Protocol: as §1, §2, §3, §4, §5, §6, §7, §8, §9, §10

[6] = system: Dicots; assay: Herbicidal activity, postemergence, dicot weeds (Table II); settings: post-emergence, 336 h, about 2 weeks, read-out: % control (percent of plants killed); for pest or weed control at 2241.7 g/ha: 2 lb./A.; for pest or weed control at 4483.4 g/ha: 4 lb./A.
Protocol: as §1
(§12) bindweed (Convolvulus arvensis) curly dock (Remex crispus) velvetleaf (Abutilon theophrasti) wild mustard (Brassica haber)
(§13) At 2 and 4 pounds per acre: […]
(§14) cocklebur (Xanthium pensylvanicum)
(§15) **coffeeweed (Sesbania macrocarpa)
(§16) *curly dock (Rumex crispus)
(§17) *lambsquarters (Chenopodium album) morningglory (Ipomoea purpurea)
(§18) *pigweed (Amaranthus retroflexus)
(§19) **ragweed (Ambrosia artemisiifolia)
(§20) *smartweed (Polygonum pensylvanicum)
(§21) **tomato (Lycopersicon esculentum)
(§22) *wild carrot (Daucus carota)
(§23) *wild mustard (Brassica haber)
as §10

[7] = system: Dicots; assay: Herbicidal activity, preemergence, dicot weeds (Table II); settings: pre-emergence, 336 h, about 2 weeks, read-out: % control (percent of plants killed); for pest or weed control at 2241.7 g/ha: 2 lb./A.; for pest or weed control at 4483.4 g/ha: 4 lb./A.
Protocol: as §1, §12, §13, §14, §15, §16, §17, §18, §19, §20, §21, §22, §23, §10

[8] = system: soybeans; assay: Crop tolerance, soybeans; settings: preemergence; 50% or less kill of crop at rates giving more than 50% kill of weeds
Protocol: as §10, §11

[9] = system: corn; assay: Crop tolerance, corn; settings: 50% or less kill of crop at rates giving more than 50% kill of weeds
Protocol: as §10, §11

[10] = postemergence or on transplanted rice

Compound | pest or weed control at 2241.7 g/ha [1] [%] | pest or weed control at 4483.4 g/ha [1] [%] | Tolerance to peanuts ([2]; postemergence) | Tolerance to peanuts ([2]; preemergence) | Tolerance to wheat ([3]; postemergence) | Tolerance to rice [4, 10] | pest or weed control at 2241.7 g/ha [5] [%] | pest or weed control at 4483.4 g/ha [5] [%] | pest or weed control at 2241.7 g/ha [6] [%] | pest or weed control at 4483.4 g/ha [6] [%] | pest or weed control at 2241.7 g/ha [7] [%] | pest or weed control at 4483.4 g/ha [7] [%] | Tolerance to soybeans [8] | Tolerance to corn ([9]; postemergence) | Tolerance to wheat ([3]; preemergence) | Tolerance to corn ([9]; preemergence) | Tolerance to rice ([4]; preemergence)
O=C(O)c1cc(Oc2ccc(C(F)(F)F)cc2Cl)ccc1[N+](=O)[O-] [Example 48, 2-Chloro-α,α,α-trifluoro-p-tolyl-3-carboxy-4-nitrophenyl ether] | 84 | 75 | Tolerance | Tolerance | Tolerance | Tolerance | 100 | 99 | 97 | 100 | 100 | 97 | Tolerance |  |  |  | 
COC(=O)c1cc(Oc2ccc(C(F)(F)F)cc2Cl)ccc1[N+](=O)[O-] [Example 49, 2-chloro-α,α,α-trifluoro-p-tolyl-3-carbomethoxy-4-nitrophenyl ether] | 77 | 86 |  | Tolerance |  |  | 100 | 92 | 100 | 100 | 100 | 95 | Tolerance | Tolerance |  |  | 
COC(=O)C(C)Oc1cc(Oc2ccc(C(F)(F)F)cc2Cl)ccc1[N+](=O)[O-] (stereo not drawn) [Example 50] | 100 | 97 |  | Tolerance |  |  | 98 | 90 | 100 | 100 | 100 | 83 | Tolerance |  | Tolerance |  | 
CNC(=O)C(C)Oc1cc(Oc2ccc(C(F)(F)F)cc2Cl)ccc1[N+](=O)[O-] (stereo not drawn) [Example 52] | 93 | 87 |  | Tolerance |  |  | 98 | 79 | 100 | 100 | 75 | 67 | Tolerance | Tolerance |  | Tolerance | Tolerance
CC(Oc1cc(Oc2ccc(C(F)(F)F)cc2Cl)ccc1[N+](=O)[O-])C(=O)N(C)C (stereo not drawn) [Example 53] | 81 | 79 | Tolerance | Tolerance |  | Tolerance | 98 | 98 | 100 | 100 | 100 | 83 | Tolerance | Tolerance |  |  | 
CCOc1cc(Oc2c(Cl)cc(C(F)(F)F)cc2Cl)ccc1[N+](=O)[O-] [Example 56, 2,6-Dichloro-α,α,α-trifluoro-p-tolyl-3-ethoxy-4-nitrophenyl ether] | 100 | 99 |  | Tolerance |  |  | 100 | 91 | 99 | 100 | 100 | 83 |  | Tolerance | Tolerance |  | 
